Laboratory results reported in ChEMBL document CHEMBL1201862, “PubChem BioAssay data set” (2004).
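The compound was tested at five concentrations on cells cultured in 96-well plates, with a 48-hour exposure period. GI50 marks 50% less growth.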 Active and inactive are the calls of the source. Rule as the data show it: active = GI50 up to about 1.1 µM and inactive = higher.

Tests used:
Assay in all cases: NCI-60 cell line screen, 48 h
786-0 = system: 786-0
A498 = system: A498
A549 = system: A549
ACHN = system: ACHN
BT-549 = system: BT-549
CAKI-1 = system: CAKI-1
CCRF-CEM = system: CCRF-CEM
COLO 205 = system: COLO 205
DU-145 = system: DU-145
EKVX = system: EKVX
HCT-116 = system: HCT-116
HCT-15 = system: HCT-15
HL-60 = system: HL-60
HOP-92 = system: HOP-92
HT-29 = system: HT-29
Hs-578T = system: Hs-578T
IGROV-1 = system: IGROV-1
K562 = system: K562
KM12 = system: KM12
M14 = system: M14
MDA-MB-231 = system: MDA-MB-231
MDA-MB-435 = system: MDA-MB-435
MDA-N = system: MDA-N
MOLT-4 = system: MOLT-4
Malme-3M = system: Malme-3M
NCI-H226 = system: NCI-H226
NCI-H23 = system: NCI-H23
NCI-H460 = system: NCI-H460
NCI-H522 = system: NCI-H522
NCI/ADR-RES = system: NCI/ADR-RES
OVCAR-4 = system: OVCAR-4
OVCAR-5 = system: OVCAR-5
OVCAR-8 = system: OVCAR-8
PC-3 = system: PC-3
RPMI-8226 = system: RPMI-8226
RXF 393 = system: RXF 393
SF-268 = system: SF-268
SF-295 = system: SF-295
SF-539 = system: SF-539
SK-MEL-28 = system: SK-MEL-28
SK-MEL-2 = system: SK-MEL-2
SK-MEL-5 = system: SK-MEL-5
SK-OV-3 = system: SK-OV-3
SN12C = system: SN12C
SNB-19 = system: SNB-19
SNB-75 = system: SNB-75
SR = system: SR
SW-620 = system: SW-620
T47D = system: T47D
TK-10 = system: TK-10
U-251 = system: U-251
UACC-257 = system: UACC-257
UACC-62 = system: UACC-62
UO-31 = system: UO-31

## NCCC1([N+](=O)[O-])C=CN=CC1 (centres undefined)
786-0
  GI50: > 100 µM (inactive)
A498
  GI50: > 100 µM (inactive)
A549
  GI50: > 100 µM (inactive)
ACHN
  GI50: > 100 µM (inactive)
BT-549
  GI50: > 100 µM (inactive)
CAKI-1
  GI50: > 100 µM (inactive)
CCRF-CEM
  GI50: > 100 µM (inactive)
COLO 205
  GI50: > 100 µM (inactive)
DU-145
  GI50: > 100 µM (inactive)
EKVX
  GI50: > 100 µM (inactive)
HCT-116
  GI50: > 100 µM (inactive)
HCT-15
  GI50: > 100 µM
HL-60
  GI50: > 100 µM (inactive)
HOP-92
  GI50: < 0.01 µM (active)
HT-29
  GI50: > 100 µM (inactive)
Hs-578T
  GI50: > 100 µM (inactive)
IGROV-1
  GI50: > 100 µM (inactive)
K562
  GI50: > 100 µM (inactive)
KM12
  GI50: > 100 µM (inactive)
M14
  GI50: > 100 µM (inactive)
MDA-MB-231
  GI50: > 100 µM (inactive)
MDA-MB-435
  GI50: > 100 µM (inactive)
MDA-N
  GI50: > 100 µM (inactive)
MOLT-4
  GI50: > 100 µM (inactive)
Malme-3M
  GI50: > 100 µM (inactive)
NCI-H226
  GI50: > 100 µM (inactive)
NCI-H23
  GI50: > 100 µM (inactive)
NCI-H460
  GI50: > 100 µM (inactive)
NCI-H522
  GI50: > 100 µM (inactive)
NCI/ADR-RES
  GI50: > 100 µM (inactive)
OVCAR-4
  GI50: > 100 µM (inactive)
OVCAR-5
  GI50: > 100 µM (inactive)
OVCAR-8
  GI50: > 100 µM (inactive)
PC-3
  GI50: > 100 µM (inactive)
RPMI-8226
  GI50: > 100 µM (inactive)
RXF 393
  GI50: > 100 µM (inactive)
SF-268
  GI50: > 100 µM (inactive)
SF-295
  GI50: > 100 µM (inactive)
SF-539
  GI50: > 100 µM (inactive)
SK-MEL-28
  GI50: > 100 µM (inactive)
SK-MEL-2
  GI50: > 100 µM (inactive)
SK-MEL-5
  GI50: > 100 µM (inactive)
SK-OV-3
  GI50: > 100 µM (inactive)
SN12C
  GI50: > 100 µM (inactive)
SNB-19
  GI50: > 100 µM (inactive)
SNB-75
  GI50: 6.98 µM (inactive)
SR
  GI50: > 100 µM (inactive)
SW-620
  GI50: > 100 µM (inactive)
T47D
  GI50: > 100 µM (inactive)
TK-10
  GI50: > 100 µM (inactive)
U-251
  GI50: > 100 µM (inactive)
UACC-257
  GI50: > 100 µM (inactive)
UACC-62
  GI50: > 100 µM (inactive)
UO-31
  GI50: > 100 µM (inactive)
